Measurements published in ChEMBL document CHEMBL1201862, “PubChem BioAssay data set” (2004).
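Test compounds were applied to cells in 96-well plates for 48 hours at 5 doses. GI50 marks 50% less growth.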 The source made the active and inactive calls. No stated cut-off is given here; in the data, active = GI50 up to about 1.1 µM and inactive = higher.

Columns and labels:
Experiment in all cases: inhibition of tumour cell growth, NCI panel, 48 h
[1] = test system: A549
[2] = test system: DU-145
[3] = test system: HL-60
[4] = test system: HT-29
[5] = test system: KM12
[6] = test system: MDA-MB-231
[7] = test system: NCI-H226
[8] = test system: NCI/ADR-RES
[9] = test system: RPMI-8226
[10] = test system: SF-268
[11] = test system: SK-MEL-28
[12] = test system: SK-MEL-2
[13] = test system: SK-OV-3
[14] = test system: SNB-75
[15] = test system: SR
[16] = test system: T47D
[17] = test system: TK-10
[18] = test system: UACC-257
[19] = test system: UACC-62

Measured: GI50

CCN1c2cc(Br)cc3[nH]c(=O)n(c23)CCC1C (stereo unspecified)
inactive: [1] 15.1 µM | [2] 18.3 µM | [3] 11.9 µM | [4] 15.6 µM | [5] 15.1 µM | [6] 17.3 µM | [7] 15.8 µM | [8] 5.7 µM | [9] 10.3 µM | [10] 14.2 µM | [11] 18.7 µM | [12] 15.6 µM | [13] 19.4 µM | [14] 12.3 µM | [15] 6.56 µM | [16] 17.4 µM | [17] 15.9 µM | [18] 17.4 µM | [19] 5.16 µM

CC(C)(C)c1cc(-c2cc(C(C)(C)C)n(-c3ccccc3)n2)nn1-c1ccccc1
inactive: [1] > 100 µM | [2] > 100 µM | [3] > 100 µM | [4] 68.9 µM | [5] 84.5 µM | [6] > 100 µM | [7] > 100 µM | [8] > 100 µM | [9] > 100 µM | [10] > 100 µM | [11] > 100 µM | [12] > 100 µM | [13] > 100 µM | [14] > 100 µM | [15] > 100 µM | [16] 59.2 µM | [17] > 100 µM | [18] > 100 µM | [19] 11.6 µM

CC(C)(C)c1cc(OCc2nnc(S)n2N)c(Cl)cc1OCc1nnc(S)n1N
inactive: [1] 52.2 µM | [2] 59 µM | [3] 4.19 µM | [4] 43.9 µM | [5] 40.9 µM | [6] 27.5 µM | [7] > 100 µM | [8] > 100 µM | [9] 29.5 µM | [10] 45.5 µM | [11] 45.9 µM | [12] 18.4 µM | [13] > 100 µM | [14] 44.1 µM | [15] 22.3 µM | [16] 30.6 µM | [17] 52.2 µM | [18] 33 µM | [19] 20.7 µM

CCC(C(=O)c1cccs1)C(O)(C(F)(F)F)C(F)(F)F (stereo unspecified)
inactive: [1] > 100 µM | [2] > 100 µM | [3] 3.39 µM | [4] > 100 µM | [5] > 100 µM | [6] > 100 µM | [7] > 100 µM | [8] > 100 µM | [9] > 100 µM | [10] > 100 µM | [11] > 100 µM | [12] > 100 µM | [13] > 100 µM | [14] > 100 µM | [15] > 100 µM | [16] > 100 µM | [17] > 100 µM | [18] > 100 µM | [19] > 100 µM

C[N+]1(CCCCN2c3ccccc3Sc3cc(N=[N+]=[N-])ccc32)CCN(C(=O)CCNC(=O)Cc2ccc(C(=O)c3ccccc3)cc2)CC1
inactive: [1] 27.4 µM | [2] 19.1 µM | [3] 9.1 µM | [4] 18.1 µM | [5] 24.3 µM | [6] 25.4 µM | [7] 36.1 µM | [8] 35.9 µM | [9] 18.7 µM | [10] 23.4 µM | [11] 16 µM | [12] 29.4 µM | [13] 29 µM | [14] 20.3 µM | [15] 18.7 µM | [16] 21.3 µM | [17] 11.4 µM | [18] 31.3 µM | [19] 28.5 µM

C=C1C(=O)OC2CC(C)C3(O)CCC(=O)C3(C)CC12 (stereo unspecified)
inactive: [1] 52.4 µM | [2] 31.9 µM | [3] 18 µM | [4] 20.2 µM | [5] 20.7 µM | [6] 26 µM | [7] 64 µM | [8] 32.4 µM | [9] 14.8 µM | [10] 18.5 µM | [11] 54.8 µM | [12] 22.2 µM | [13] 46.8 µM | [14] 20.2 µM | [15] 23.2 µM | [16] 40.4 µM | [17] 26.7 µM | [18] 43.7 µM | [19] 44.3 µM

CC[C@]12C=CCN3CC[C@@]4(c5cc(Br)c(OC)cc5N(C)[C@H]4[C@@](O)(C(=O)NC(Cc4c[nH]c5ccccc45)C(=O)OC)[C@@H]1O)[C@@H]32 (stereo partly specified)
inactive: [1] 11.8 µM | [2] 35.2 µM | [3] 13.5 µM | [4] 7.89 µM | [5] 11 µM | [6] 30.6 µM | [7] 10.8 µM | [8] 7.91 µM | [9] 2.94 µM | [10] 6.15 µM | [11] 92.9 µM | [12] 25.2 µM | [13] > 100 µM | [14] > 100 µM | [15] 4.33 µM | [16] 5.2 µM | [19] 24.3 µM
